Reference: patent US20090137499A1, “BENZYLPHENYL GLUCOPYRANOSIDE DERIVATIVE” (priority 2006, published 2009)

biological target: T1, human SGLT2 (Homo sapiens, UniProt P31639); assay: Determination of SGLT2 inhibiting activity using human SGLT2 expressing cell ([14C]-α-methyl-D-glucopyranoside uptake); format: cell-based; details: HEK-SGLT2 cells, 1 mM [14C]-α-methyl-D-glucopyranoside, 37° C., 30 min
T1 construct: expressed in transfected cells
T1 sequence (P31639 1-672): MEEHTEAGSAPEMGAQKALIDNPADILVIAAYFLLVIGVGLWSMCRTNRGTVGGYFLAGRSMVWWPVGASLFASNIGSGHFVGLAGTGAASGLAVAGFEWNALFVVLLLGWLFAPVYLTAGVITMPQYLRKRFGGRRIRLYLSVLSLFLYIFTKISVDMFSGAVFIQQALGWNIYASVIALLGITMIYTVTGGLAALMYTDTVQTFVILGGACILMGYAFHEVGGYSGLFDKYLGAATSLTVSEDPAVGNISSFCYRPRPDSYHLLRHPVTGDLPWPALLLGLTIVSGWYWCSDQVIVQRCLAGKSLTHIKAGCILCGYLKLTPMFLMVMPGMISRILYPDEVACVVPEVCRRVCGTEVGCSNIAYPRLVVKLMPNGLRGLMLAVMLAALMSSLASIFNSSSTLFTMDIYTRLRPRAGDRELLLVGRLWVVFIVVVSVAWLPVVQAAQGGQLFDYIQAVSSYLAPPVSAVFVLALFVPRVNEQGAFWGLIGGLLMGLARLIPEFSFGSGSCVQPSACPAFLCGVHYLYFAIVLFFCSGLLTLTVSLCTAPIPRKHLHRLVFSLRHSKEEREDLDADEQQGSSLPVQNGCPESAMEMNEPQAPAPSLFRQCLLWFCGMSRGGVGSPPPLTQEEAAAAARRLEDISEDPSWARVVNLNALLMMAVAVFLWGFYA
Procedure: Determination of SGLT2 Inhibiting Activity Using Human SGLT2 Expressing Cell
1) Preparation of Vector Expressing Human SGLT2 cDNA in Animal Cell
Amplification was performed by PCR using human SGLT2 cDNA clone (Origene: Clone Number, TC303267; GenBank accession number, NM 003041) as a template. The sense oligonucleotide primer for PCR was 5′-[…]-3′ (Primer 3: SEQ ID NO: 3 in the sequence listing),
and the antisense oligonucleotide primer was 5′-[…]-3′ (Primer 4: SEQ ID NO: 4 in the sequence listing). The PCR product was subjected to agarose electrophoresis, then a target DNA fragment was recovered from a single band corresponding to 2037 bases, digested with restriction enzymes HindIII and XhoI, and introduced into the HindIII/XhoI site of vector pCMV-Script (Stratagene) to obtain SGLT2 expressing plasmid pCMV-SGLT2. A HindIII/XhoI fragment was excised from pCMV-SGLT2 and introduced into the BamHI/XhoI site of pENTR1A (Gateway, Invitrogen) to prepare pENTR-SGLT2. Retrovirus vector pLPCX (Clontech) into which Gateway Vector Conversion System Cassette A (Invitrogen) was introduced was used as the destination plasmid to prepare SGLT2 expressing retrovirus vector pLPCX-SGLT2.
2) Establishment of Human SGLT2 Expressing Cell
The retrovirus pLPCX-SGLT2 obtained in 1) was transfected into integrin αvβ3 expressing HEK-293 cells, the cells were treated with antibiotic G418 (brand name, Geneticin: Invitrogen) and puromycin (Clontech) to obtain HEK-SGLT2 cells stably expressing the target vector having resistance. The stably expressing cells were cultured and maintained in DMEM medium containing […] G418, […] puromycin, 3 mM KGT-1075, and 10% FBS.
3) Determination of SGLT2 Inhibiting Activity
HEK-SGLT2 cells were suspended at a density of 10^6 cells/mL in DMEM medium containing 250 mg/mil G418, 1 mg/ml puromycin, and 10% FBS, and 100 μL was seeded in each well of a type 1 collagen-coated 96-well culture plate (Corning). On the following day, the medium was replaced with a sugar uptake buffer (10 mM HEPES [pH 7.5], 5 mM Tris-HCl [pH 7.5], 140 mM NaCl, 2 mM KCl, 1 mM CaCl2, 1 mM MgCl2), and the cells were cultured with 1 mM [^14C]-α-methyl-D-glucopyranoside (0.1 mCi) and a test compound at 37° C. for 30 min, and then washed 3 times with a washing buffer (10 mM HEPES (pH 7.5), 5 mM Tris-HCl (pH 7.5), 140 mM choline chloride, 2 mM KCl, 1 mM CaCl2, 1 mM MgCl2). 100 μL of liquid scintillation cocktail (brand name, Supermix: Perkin-Elmer) was added to each well of the 96-well plate and stirred for 10 min, and then radioactivity was determined with micro β (Perkin-Elmer), a type of liquid scintillation counter. The value obtained by deducting the radioactivity in the presence of an excess amount of an SGLT2 inhibiting compound as the background from each measured value was taken as the sugar uptake activity, the inhibition rate (%) was calculated from the control sugar uptake activity obtained without using a test compound and the sugar uptake activity obtained using a test compound having a predetermined concentration, and the concentrations of the test compound at which the sugar uptake activity was inhibited by 50% were assessed.

Row | Structure (SMILES) | IC50 [nM]
1 | COc1ccc(Cc2c(OC)cc(CO)cc2O[C@@H]2O[C@H]([C@@H](C)O)[C@@H](O)[C@H](O)[C@H]2O)cc1 [Example 83, 5-Hydroxymethyl-3-methoxy-2-(4-methoxybenzyl)phenyl 7-deoxy-D-glycero-β-D-gluco-heptopyranoside] | 39
2 | C[C@@H](O)[C@H]1O[C@@H](Oc2cc(CO)cc(F)c2Cc2ccc(C3CC3)cc2)[C@H](O)[C@@H](O)[C@@H]1O [Example 88, 2-(4-Cyclopropylbenzyl)-3-fluoro-5-hydroxymethylphenyl 7-deoxy-D-glycero-β-D-gluco-heptopyranoside] | 19
3 | CCc1ccc(Cc2c(C)cc(CO)cc2O[C@@H]2O[C@H]([C@@H](C)O)[C@@H](O)[C@H](O)[C@H]2O)cc1 [Example 89, 2-(4-Ethylbenzyl)-5-hydroxymethyl-3-methylphenyl 7-deoxy-D-glycero-β-D-gluco-heptopyranoside] | 35
4 | C[C@@H](O)[C@H]1O[C@@H](Oc2cc(CO)cc(Cl)c2Cc2ccc(OC3CC3)cc2)[C@H](O)[C@@H](O)[C@@H]1O [Example 95, 3-Chloro-2-(4-cyclopropoxybenzyl)-5-hydroxymethyl-phenyl 7-deoxy-D-glycero-β-D-gluco-heptopyranoside] | 49
5 | Cc1cc(CO)cc(O[C@@H]2O[C@H]([C@@H](C)O)[C@@H](O)[C@H](O)[C@H]2O)c1Cc1ccc(OC2CC2)cc1 [Example 96, 2-(4-Cyclopropoxybenzyl)-5-hydroxymethyl-3-methyl-phenyl 7-deoxy-D-glycero-β-D-gluco-heptopyranoside] | 36
6 | C=Cc1cc(CO)cc(O[C@@H]2O[C@H]([C@@H](C)O)[C@@H](O)[C@H](O)[C@H]2O)c1Cc1ccc(OC)cc1 [Example 101, 5-Hydroxymethyl-2-(4-methoxybenzyl)-3-vinyl-phenyl 7-deoxy-D-glycero-β-D-gluco-heptopyranoside] | 136

The next compounds have a lower IC50 than those just listed; values first:

Row | IC50 [nM] | Structure (SMILES)
7 | 6.3 | COc1ccc(Cc2c(F)cc(CO)cc2O[C@@H]2O[C@H]([C@@H](C)O)[C@@H](O)[C@H](O)[C@H]2O)cc1 [Example 84, 3-Fluoro-5-hydroxymethyl-2-(4-methoxybenzyl)phenyl 7-deoxy-D-glycero-β-D-gluco-heptopyranoside]
8 | 13 | CCOc1ccc(Cc2ccc(CO)cc2O[C@@H]2O[C@H]([C@@H](C)O)[C@@H](O)[C@H](O)[C@H]2O)cc1 [Example 93, 2-(4-Ethoxybenzyl)-5-hydroxymethylphenyl 7-deoxy-D-glycero-β-D-gluco-heptapyranoside]
9 | 11 | COc1ccc(Cc2c(C)cc(CO)cc2O[C@@H]2O[C@H]([C@@H](C)O)[C@@H](O)[C@H](O)[C@H]2O)cc1 [Example 94, 5-Hydroxymethyl-2-(4-methoxybenzyl)-3-methylphenyl 7-deoxy-D-glycero-β-D-gluco-heptopyranoside]
10 | 11 | Cc1ccc(Cc2c(F)cc(CO)cc2O[C@@H]2O[C@H]([C@@H](C)O)[C@@H](O)[C@H](O)[C@H]2O)cc1 [Example 97, 3-Fluoro-5-hydroxymethyl-2-(4-methylbenzyl)phenyl 7-deoxy-D-glycero-β-D-gluco-heptopyranoside]
11 | 17 | Cc1ccc(Cc2ccc(CO)cc2O[C@@H]2O[C@H]([C@@H](C)O)[C@@H](O)[C@H](O)[C@H]2O)cc1 [Example 98, 5-Hydroxymethyl-2-(4-methylbenzyl)phenyl 7-deoxy-D-glycero-β-D-gluco-heptapyranoside]
